Results: patent EP4467141A1, “PYRAZOLO-QUINOLINES AS SELECTIVE INHIBITORS OF GENOTOXIC STRESS-INDUCED IKK/NF- KB PATHWAYS FOR CANCER THERAPY” (Max-Delbrück-Centrum für Molekulare Medizin in der …, priority 2023, dated 2024)

System: Akt phosphorylation (S473)
Test: Western blot of Akt phosphorylation (S473) in U2-OS cells
Type: cell-based
Settings: 1-hour pre-treatment
Procedure: Fig.2: MW01 and MW05 are potent and selective kinase inhibitors. […] Heatmap indicates lower IC50. […] (C) Western blot analysis of NF-κB p65 phosphorylation (S536) and Akt phosphorylation (S473) following 1-hour pre-treatment with DMSO, MW01 (10 µM), MW05 (10µM), PI-103 (1 µM), NU7441 (1 µM), or MU1210 (1 µM) in unstimulated, after 90 min irradiation (IR, 20 Gy), or after 20 min TNFα (10 ng/ml) conditions in U2-OS cells. (D) mRNA expression analysis of CLK2 (top), 48 hours after transfection with siNC, CLK2 si1, or CLK2 si2. mRNA expression analysis of NFKBIA (bottom), 48 hours after transfection with siNC, CLK2 si1, orCLK2 si2. Values are normalized to unstimulated siNC expressing cells. Statistical comparison was made between experimental conditions and respective paired siNC expressing controls. ns: not significant; **, ***, ****: p<0.01, p<0.001, p<0.000. (E) Western blot analysis of U2-OS cells after transfection with siNC or CLK2 si2 unstimulated, after irradiation (IR), or after TNFα treatment. Vinculin used as loading control. (F) IC50 (nM) of all CLK isoforms for MW01 and MW05. (G) Quantification from (E) with CLK2 knockdown and p-p65 quantification (top left and top right, respectively) and CLK4 knockdown and p-p65 (bottom left and bottom right, respectively. ns: not significant; **, ***, ****: p<0.01, p<0.001, p<0.0001.
Cells were collected by scraping and lysed in Baeuerle lysis buffer supplemented with Protease (Thermo Fisher Scientific, 78429) and Phosphatase (Thermo Fisher Scientific, 78420) inhibitors after the appropriate treatment and time point. Proteins were quantified by Bradford assay (Bio-Rad, 5000006) and 20-50 µg of extracted proteins were loaded on 4-20% Protein Gel (Bio-Rad, 4568096) and then transferred onto a PVDF membrane (Bio-Rad, 1620177) using Tris-Glycine buffer with 20% of methanol. Blocking was performed for 1h with 5% not-fat dry milk in PBS 1X. […] The membranes were analyzed by ECL (Thermo Fisher Scientific, 34580) and detected by ChemiDoc XRS+ (Bio-Rad) using ImageLab software (Bio-Rad). […]

In the case of COc1ccc2c(c1OC)c(=O)n1c3ccc(O)cc3c3ccnc2c31 [MW01, 5-Hydroxy-10,11-dimethoxy-9H-benzo[c]indolo[3,2,1-ij][1,5]naphthyridin-9-one], the “reduction of p-Akt” value is reported as “complete reduction”.
For COc1ccc2cc3c(N)nn(C(=O)c4cccc(N(C)C)c4)c3nc2c1 [MW05, (3-Amino-7-methoxypyrazolo[3,4-b]quinolin-1-yl)-[3-(dimethylamino)phenyl]methanone], the “reduction of p-Akt” value was “partial reduction”.
